Measurements: ChEMBL document CHEMBL1201862, “PubChem BioAssay data set” (2004)
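These data come from cells grown in 96-well plates and exposed to compound for 48 hours at five concentrations. GI50 marks 50% less growth.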 Active and inactive are the calls of the source. No stated cut-off is given here; in the data, active = GI50 up to about 1.1 µM and inactive = higher.

Columns and labels:
Test in all cases: inhibition of tumour cell growth, NCI panel, 48 h
[1] = tested on: DLD-1
[2] = tested on: DMS-273
[3] = tested on: HOP-18
[4] = tested on: KM-20L2
[5] = tested on: LXFL 529
[6] = tested on: M19-MEL
[7] = tested on: RXF 631
[8] = tested on: SNB-78
[9] = tested on: XF498

| Structure (SMILES) | GI50 [1] | GI50 [2] | GI50 [3] | GI50 [4] | GI50 [5] | GI50 [6] | GI50 [7] | GI50 [8] | GI50 [9] |
| --- | --- | --- | --- | --- | --- | --- | --- | --- | --- |
| COC(=O)CCCCCOS(=O)(=O)c1ccc(C)cc1 | > 100 µM (inactive) | > 100 µM (inactive) | > 100 µM (inactive) | > 100 µM (inactive) | > 100 µM (inactive) | > 100 µM (inactive) | > 100 µM (inactive) | > 100 µM (inactive) | > 100 µM (inactive) |
| COC(=O)C1CCC(C)CC1=O (stereo not drawn) | > 100 µM (inactive) | > 100 µM (inactive) | – | – | > 100 µM (inactive) | > 100 µM (inactive) | > 100 µM (inactive) | > 100 µM (inactive) | > 100 µM (inactive) |
| COC1=CC(=O)c2c(O)c3c(c(O)c2C1=O)C=C(C)OC3O (stereo not drawn) | 0.665 µM (active) | 1.01 µM (active) | – | 0.365 µM (active) | 1.36 µM (inactive) | 0.224 µM (active) | – | 1.73 µM (inactive) | 1.84 µM (inactive) |
| CCOC(=O)C1=C(Nc2ccccc2)SC/C1=N\NC(=O)Cc1ccccc1 | > 100 µM (inactive) | > 100 µM (inactive) | > 100 µM (inactive) | > 100 µM (inactive) | > 100 µM (inactive) | > 100 µM (inactive) | > 100 µM (inactive) | > 100 µM (inactive) | > 100 µM (inactive) |
| CC1=C(SC#N)S(=O)(=O)N(c2ccccc2)C(C)=C1SC#N | 33.3 µM (inactive) | 50.5 µM (inactive) | – | – | 22.4 µM (inactive) | 29.5 µM (inactive) | – | 78.3 µM (inactive) | 16.8 µM (inactive) |
| Cc1cc2occ(C)c(=O)c2c2c1OC(C)(C)S2 | > 100 µM (inactive) | > 100 µM (inactive) | > 100 µM (inactive) | > 100 µM (inactive) | > 100 µM (inactive) | > 100 µM (inactive) | – | – | > 100 µM (inactive) |
| COc1cc2c3c(c1OC)-c1ccccc1C(C(OC(C)=O)c1ccccc1)C3N(C)CC2 (stereo not drawn) | 5.97 µM (inactive) | 19.3 µM (inactive) | > 100 µM (inactive) | 27.1 µM (inactive) | 19.7 µM (inactive) | 28.8 µM (inactive) | – | 32.7 µM (inactive) | – |
| COc1ccc(/C=C\c2cc(OC)c(OC)c(OC)c2)cc1OC(=O)NCCN(C)C | < 0.0001 µM (active) | < 0.0001 µM (active) | 16.8 µM (inactive) | 0.136 µM (active) | < 0.0001 µM (active) | < 0.0001 µM (active) | 0.000196 µM (active) | < 0.0001 µM (active) | < 0.0001 µM (active) |
| CCCCCCCCCCCC(=O)OCC1OC(OC)C(NC(=O)N(CCCl)N=O)C(O)C1O (stereo not drawn) | 17.5 µM (inactive) | 11.2 µM (inactive) | 34.3 µM (inactive) | 17 µM (inactive) | 12.6 µM (inactive) | 38.8 µM (inactive) | – | – | 12.4 µM (inactive) |
| COc1ccc(CN(O)C2C(CO)OC(n3cc(I)c(=O)[nH]c3=O)C2O)cc1 (stereo not drawn) | > 100 µM (inactive) | > 100 µM (inactive) | > 100 µM (inactive) | > 100 µM (inactive) | > 100 µM (inactive) | > 100 µM (inactive) | – | > 100 µM (inactive) | > 100 µM (inactive) |
| COc1cc(NCc2ccc3nc(N)nc(N)c3c2C)cc(OC)c1OC | 0.0253 µM (active) | 0.025 µM (active) | 7.29 µM (inactive) | 0.0347 µM (active) | – | 0.326 µM (active) | – | 5.42 µM (inactive) | 2.57 µM (inactive) |
| COc1cc2c(c(OC)c1OC)-c1ccc(SC)c(=O)cc1[C@@H](NCc1cccc(C#N)c1)CC2 | 0.0245 µM (active) | 0.00647 µM (active) | – | 0.0131 µM (active) | 0.0147 µM (active) | 0.0193 µM (active) | 0.0075 µM (active) | 0.0197 µM (active) | 0.0257 µM (active) |
| Cc1cn(C2CC(O)C(CO)O2)c(=O)[nH]c1=O (stereo not drawn) | 2700 µM (inactive) | 3780 µM (inactive) | 4610 µM (inactive) | 3360 µM (inactive) | – | 1070 µM (inactive) | – | 3180 µM (inactive) | 263 µM (inactive) |
